Measured values published in ChEMBL document CHEMBL3751766, “Synthesis and evaluation of atorvastatin esters as prodrugs metabolically activated by human carboxylesterases” (Bioorg Med Chem Lett, 2016).

Key:
Liver carboxylesterase 1 = biological target: T1, Liver carboxylesterase 1 (Homo sapiens, UniProt P23141); test: Prodrug activation in human liver microsomes assessed as CES1-mediated compound hydrolysis at […] after 90 mins by HPLC analysis; conditions: 1.5 h
T1 sequence (P23141 whole entry): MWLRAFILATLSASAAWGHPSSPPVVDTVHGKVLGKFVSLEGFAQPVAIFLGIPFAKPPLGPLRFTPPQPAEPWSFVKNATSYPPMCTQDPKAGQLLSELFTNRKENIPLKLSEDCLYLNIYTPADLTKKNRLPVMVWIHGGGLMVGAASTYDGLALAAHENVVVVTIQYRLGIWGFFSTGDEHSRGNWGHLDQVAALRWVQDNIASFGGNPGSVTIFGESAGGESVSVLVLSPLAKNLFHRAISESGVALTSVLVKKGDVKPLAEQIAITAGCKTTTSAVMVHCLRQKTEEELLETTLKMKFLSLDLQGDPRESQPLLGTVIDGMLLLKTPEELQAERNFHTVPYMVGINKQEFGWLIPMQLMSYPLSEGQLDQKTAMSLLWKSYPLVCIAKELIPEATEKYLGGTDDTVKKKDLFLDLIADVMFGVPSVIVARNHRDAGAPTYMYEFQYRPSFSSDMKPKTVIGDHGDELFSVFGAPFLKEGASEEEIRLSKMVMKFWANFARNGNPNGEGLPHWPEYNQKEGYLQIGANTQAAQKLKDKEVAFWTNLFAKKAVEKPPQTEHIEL

Cocaine esterase = biological target: T2, Cocaine esterase (Homo sapiens, UniProt O00748); test: Prodrug activation in human intestine microsomes assessed as CES2-mediated hydrolysis of compound at […] after 90 mins by HPLC analysis; conditions: 1.5 h
T2 sequence (O00748 whole entry): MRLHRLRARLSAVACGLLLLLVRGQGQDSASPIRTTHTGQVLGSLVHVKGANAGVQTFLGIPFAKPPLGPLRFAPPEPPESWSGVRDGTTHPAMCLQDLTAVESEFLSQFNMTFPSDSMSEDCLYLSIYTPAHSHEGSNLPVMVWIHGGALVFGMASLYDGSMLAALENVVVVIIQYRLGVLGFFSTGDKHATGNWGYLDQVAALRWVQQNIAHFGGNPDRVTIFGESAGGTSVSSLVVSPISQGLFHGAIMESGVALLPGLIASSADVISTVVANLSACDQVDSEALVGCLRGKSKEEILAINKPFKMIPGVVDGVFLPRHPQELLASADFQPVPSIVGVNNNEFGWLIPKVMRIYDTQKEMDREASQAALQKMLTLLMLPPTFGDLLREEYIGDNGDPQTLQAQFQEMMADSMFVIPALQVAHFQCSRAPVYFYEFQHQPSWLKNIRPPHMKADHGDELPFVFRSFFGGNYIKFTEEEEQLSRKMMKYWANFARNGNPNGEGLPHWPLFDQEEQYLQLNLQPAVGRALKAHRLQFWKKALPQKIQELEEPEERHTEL

[1] = Drug metabolism ratio of CES1 mediated compound hydrolysis in human liver microsomes to CES2-mediated compound hydrolysis in human intestine microsomes; format: ADME
[2] = Prodrug activation assessed as human carboxylesterase 1b-mediated compound hydrolysis at […] after 30 mins by HPLC analysis; conditions: isolated protein, 0.5 h
[3] = biological target: T3, Arylacetamide deacetylase (Homo sapiens, UniProt P22760); test: Prodrug activation assessed as human AADAC-mediated compound hydrolysis at […] after 30 mins by HPLC analysis; conditions: 0.5 h
T3 sequence (P22760 whole entry): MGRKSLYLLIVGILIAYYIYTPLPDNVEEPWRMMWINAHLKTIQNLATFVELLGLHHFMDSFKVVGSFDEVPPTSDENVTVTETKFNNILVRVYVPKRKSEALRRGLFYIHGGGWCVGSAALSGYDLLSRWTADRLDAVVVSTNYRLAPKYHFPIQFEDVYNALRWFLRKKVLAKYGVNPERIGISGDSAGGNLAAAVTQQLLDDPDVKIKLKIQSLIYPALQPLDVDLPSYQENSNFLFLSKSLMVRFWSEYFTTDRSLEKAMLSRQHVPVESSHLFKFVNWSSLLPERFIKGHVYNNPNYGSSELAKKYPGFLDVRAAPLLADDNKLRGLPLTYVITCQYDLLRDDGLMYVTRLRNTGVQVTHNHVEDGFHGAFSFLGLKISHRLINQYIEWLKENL

[4] = Prodrug activation assessed as human carboxylesterase1c-mediated compound hydrolysis at […] after 30 mins by HPLC analysis; conditions: isolated protein, 0.5 h

| SMILES | Drug metabolism (Liver carboxylesterase 1) | Drug metabolism (Cocaine esterase) | Ratio [1] | Drug metabolism [2] | Drug metabolism [3] | Drug metabolism [4] |
| --- | --- | --- | --- | --- | --- | --- |
| CC(C)c1c(C(=O)Nc2ccccc2)c(-c2ccccc2)c(-c2ccc(F)cc2)n1CC[C@@H](O)C[C@@H](O)CC(=O)OC1CCCCC1 | metabolite_detected | metabolite_detected | 4.9 |  |  |  |
| COc1ccc(OC(=O)C[C@H](O)C[C@H](O)CCn2c(-c3ccc(F)cc3)c(-c3ccccc3)c(C(=O)Nc3ccccc3)c2C(C)C)cc1 | metabolite_detected | metabolite_detected | 3.4 |  |  |  |
| CC(C)c1c(C(=O)Nc2ccccc2)c(-c2ccccc2)c(-c2ccc(F)cc2)n1CC[C@@H](O)C[C@@H](O)CC(=O)OCc1ccccc1 | metabolite_detected | metabolite_detected | 9.1 |  |  |  |
| CCCCOC(=O)C[C@H](O)C[C@H](O)CCn1c(-c2ccc(F)cc2)c(-c2ccccc2)c(C(=O)Nc2ccccc2)c1C(C)C | metabolite_detected | metabolite_detected | 5.7 |  |  |  |
| CC(C)c1c(C(=O)Nc2ccccc2)c(-c2ccccc2)c(-c2ccc(F)cc2)n1CC[C@@H](O)C[C@@H](O)CC(=O)Oc1ccccc1 | metabolite_detected | metabolite_detected | 3.8 |  |  |  |
| CCCCCCCCCCOC(=O)C[C@H](O)C[C@H](O)CCn1c(-c2ccc(F)cc2)c(-c2ccccc2)c(C(=O)Nc2ccccc2)c1C(C)C | metabolite_detected | metabolite_detected | 4.4 |  |  |  |
| C=CCOC(=O)C[C@H](O)C[C@H](O)CCn1c(-c2ccc(F)cc2)c(-c2ccccc2)c(C(=O)Nc2ccccc2)c1C(C)C | metabolite_detected | metabolite_detected | 5.1 | metabolite_detected | metabolite_detected | metabolite_detected |
| CCOC(=O)C[C@H](O)C[C@H](O)CCn1c(-c2ccc(F)cc2)c(-c2ccccc2)c(C(=O)Nc2ccccc2)c1C(C)C | metabolite_detected | metabolite_detected | 40.1 |  |  |  |
| CCCCCCCCOC(=O)C[C@H](O)C[C@H](O)CCn1c(-c2ccc(F)cc2)c(-c2ccccc2)c(C(=O)Nc2ccccc2)c1C(C)C | metabolite_detected | metabolite_detected | 5.3 |  |  |  |
| CC(C)c1c(C(=O)Nc2ccccc2)c(-c2ccccc2)c(-c2ccc(F)cc2)n1CC[C@@H](O)C[C@@H](O)CC(=O)Oc1ccc(F)cc1 | metabolite_detected | metabolite_detected | 1.9 | metabolite_detected | metabolite_detected | metabolite_detected |
| COC(=O)C[C@H](O)C[C@H](O)CCn1c(-c2ccc(F)cc2)c(-c2ccccc2)c(C(=O)Nc2ccccc2)c1C(C)C | metabolite_detected | metabolite_detected | 30.5 | metabolite_detected | metabolite_detected | metabolite_detected |
| CC(C)c1c(C(=O)Nc2ccccc2)c(-c2ccccc2)c(-c2ccc(F)cc2)n1CC[C@@H]1C[C@@H](O)CC(=O)O1 [ATORVASTATIN LACTONE] | metabolite_notdetected | metabolite_notdetected | 1.7 |  |  |  |
